Positions count from the first letter of the chain named.
What was measured:
Format in all cases: cell-based
[1] = molecular target: T1, FZD6 (HiBiT-FZD6; FZD6-Nluc) (Homo sapiens, UniProt O60353); assay: NanoBiT/BRET saturation binding in live cells; conditions: HBSS, 90 min, 37 °C; cell-surface receptor; upper 7TM site; labelled compound; error SD
T1 construct: full-length receptor; expressed in deltaSMO HEK293A cells; UniProt id given for the homology model
T1 sequence (O60353 19-706): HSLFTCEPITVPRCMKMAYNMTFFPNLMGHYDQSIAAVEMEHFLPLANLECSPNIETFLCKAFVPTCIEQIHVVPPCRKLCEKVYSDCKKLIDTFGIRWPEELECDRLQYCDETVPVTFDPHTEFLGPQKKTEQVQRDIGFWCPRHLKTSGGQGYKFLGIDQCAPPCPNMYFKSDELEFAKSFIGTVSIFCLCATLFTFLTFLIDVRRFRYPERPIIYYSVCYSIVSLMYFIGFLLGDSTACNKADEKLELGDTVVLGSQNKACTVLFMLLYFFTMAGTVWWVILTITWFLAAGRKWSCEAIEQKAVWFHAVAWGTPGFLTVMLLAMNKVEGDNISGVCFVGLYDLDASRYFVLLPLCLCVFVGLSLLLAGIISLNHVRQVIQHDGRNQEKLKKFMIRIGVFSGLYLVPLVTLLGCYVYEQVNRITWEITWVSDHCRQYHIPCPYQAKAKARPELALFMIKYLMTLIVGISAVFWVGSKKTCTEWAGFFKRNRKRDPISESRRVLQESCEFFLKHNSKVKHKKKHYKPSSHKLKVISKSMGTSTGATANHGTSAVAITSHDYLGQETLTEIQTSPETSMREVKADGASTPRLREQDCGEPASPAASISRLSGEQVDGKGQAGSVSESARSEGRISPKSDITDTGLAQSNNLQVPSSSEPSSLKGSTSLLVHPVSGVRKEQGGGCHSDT

[2] = molecular target: T2, SMO (HiBiT-SMO; SMO-Nluc) (Mus musculus, UniProt P56726, F466P); assay: NanoBiT/BRET saturation binding in live cells; conditions: HBSS, 90 min, 37 °C; cell-surface receptor; labelled compound; error SD
T2 construct: full-length receptor; C-terminal Nluc (SMO-Nluc) for miniGsi recruitment; expressed in deltaSMO HEK293A cells

[3] = molecular target: T3, FZD6 (HiBiT-FZD6; FZD6-Nluc) (Homo sapiens, UniProt O60353, P427F); assay: NanoBiT/BRET saturation binding in live cells; conditions: HBSS, 90 min, 37 °C; cell-surface receptor; upper 7TM site; labelled compound; error SD
T3 construct: full-length receptor; expressed in deltaSMO HEK293A cells; UniProt id given for the homology model
T3 sequence (O60353 19-706 P427F): T1 sequence (O60353 19-706) with P409F

[4] = molecular target: T4, SMO (HiBiT-SMO; SMO-Nluc) (Mus musculus, UniProt P56726); assay: NanoBiT/BRET saturation binding in live cells; conditions: HBSS, 90 min, 37 °C; cell-surface receptor; monophasic, lower 7TM site; labelled compound; error SD
T4 construct: full-length receptor; C-terminal Nluc (SMO-Nluc) for miniGsi recruitment; expressed in deltaSMO HEK293A cells

[5] = molecular target: T1, FZD6 (HiBiT-FZD6; FZD6-Nluc); assay: BRET Venus-mGsi recruitment to receptor-Nluc in deltaSMO HEK293A cells; conditions: agonist; bell-shaped concentration response; read 5 min after addition

T4 sequence (P56726 33-793): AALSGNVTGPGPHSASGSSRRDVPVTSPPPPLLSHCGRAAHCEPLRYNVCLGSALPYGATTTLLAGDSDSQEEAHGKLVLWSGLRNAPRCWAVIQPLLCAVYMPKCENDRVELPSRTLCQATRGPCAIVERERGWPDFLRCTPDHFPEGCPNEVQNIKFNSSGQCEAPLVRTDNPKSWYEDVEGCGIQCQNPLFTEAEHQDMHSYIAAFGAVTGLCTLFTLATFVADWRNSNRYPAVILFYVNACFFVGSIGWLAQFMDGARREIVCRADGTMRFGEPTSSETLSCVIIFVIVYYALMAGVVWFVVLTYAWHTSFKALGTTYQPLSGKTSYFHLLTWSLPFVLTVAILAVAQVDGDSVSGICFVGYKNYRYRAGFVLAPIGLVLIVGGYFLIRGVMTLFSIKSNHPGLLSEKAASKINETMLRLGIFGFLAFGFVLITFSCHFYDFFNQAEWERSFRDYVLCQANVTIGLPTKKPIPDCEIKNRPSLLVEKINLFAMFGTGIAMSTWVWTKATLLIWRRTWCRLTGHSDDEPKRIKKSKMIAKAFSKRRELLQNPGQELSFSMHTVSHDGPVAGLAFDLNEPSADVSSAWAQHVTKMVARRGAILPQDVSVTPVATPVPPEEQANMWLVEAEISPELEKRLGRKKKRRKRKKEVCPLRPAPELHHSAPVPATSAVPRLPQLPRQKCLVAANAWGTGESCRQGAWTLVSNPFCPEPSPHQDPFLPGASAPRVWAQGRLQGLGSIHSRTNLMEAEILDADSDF
T2 sequence (P56726 33-793 F466P): as the sequence (P56726 33-793) above, with F434P counted along it

CC1=C2CC3C(CC=C4C[C@@H](O)CCC43C)C2CCC12O[C@@H]1CC(C)CN(CCNC(=O)CCCCCNC(=O)CCC3=[N+]4C(=Cc5c(C)cc(C)n5[B-]4(F)F)C=C3)C1C2C (some centres unmarked) [BODIPY-cyclopamine]
pKd [1]: 6.45 ± 0.23 -log10 M | pKd [2]: 5.44 ± 1.02 -log10 M | pKd [3]: 6.28 ± 0.20 -log10 M | pKd [4]: 6.87 ± 0.13 -log10 M

CN[C@H]1CC[C@H](N(Cc2cccc(-c3ccncc3)c2)C(=O)c2sc3ccccc3c2Cl)CC1 [SAG1.3]
BRET Venus-mGsi recruitment to receptor-Nluc in deltaSMO HEK293A cells [5]: SAG1.3-induced mGsi recruitment to SMO, while that to FZD6 remained unaffected
